# Tests used:
# [1] = tested on: K4/K19 tetracycline-responsive ribozyme-switch; assay: K4/K19 tetracycline-responsive ribozyme-switch controlling GFP expression in stably transfected cells (FACS); assay type: cell-based, CHO; conditions: 50 μM tetracycline concentration; GFP readout
# Method: The method according to the current invention is exemplified first in the following using the K4/K19 tetracycline-responsive ribozyme-switch generated by Beilstein et al. (ACS Synth. Biol., […] (2015) 526-534). This is presented solely as an illustration of the method according to the invention and shall not be construed as limitation thereof. The true scope is set forth in the appended claims.
# Whilst the output measurement was different (Luciferase vs GFP) a 1.9× fold-increase at 50 μM tetracycline concentration was achieved (FIG. 4 and FIG. 5).
# For testing and screening RNA-switches that control the mRNA degradation of a GFP reporter were cloned into the front plasmid, whereas the red-shifted iRFP gene was cloned into the back plasmid and was used for fluorescence normalization purposes. Expressed genes were placed under the control of a strong promoter (SV40). The RNA-switches constructs were cloned downstream of the GFP gene and before the bovine growth hormone polyadenylation (bGH-polyA) signal sequence. For each construct, both the complementary and anti-complementary strands were ordered as 5′-phosphorylated ssDNA oligonucleotides at Microsynth AG (Belgach, Switzerland) and were annealed by snap cooling at 0.166 μM concentration. […]
# [2] = tested on: Env140-based LNA-regulatable ribozyme (cell lines S69 and S70); assay: LNA-activation assay and flow cytometry of GFP expression; parameters: species or system CHO; conditions: stable cell lines with inducible/switchable construct and inactive construct; FACS
# Method: S69 and S70, were seeded at 50,000 cells/well into a flat-bottom round wells 96-well microplate, in 200 μL media, and incubated in standard static cell culture condition with or without 12.5 μM LNA oligonucleotide added from three to seven days, after which a 70 μL aliquot was removed and analyzed by flow cytometry. Flow cytometry was performed on a 4-6 color BD FACSCanto™ or FACS Celesta™ System using the FITC channel for the evaluation of GFP expression, and APC channel for iRFP expression. The population of cells was gated to avoid cell doublets detected by the forward and side scattering.
compound,measurement,setting,value
CN(C)[C@@H]1C(O)=C(C(N)=O)C(=O)[C@@]2(O)C(O)=C3C(=O)c4c(O)cccc4[C@@](C)(O)[C@H]3C[C@@H]12 [tetracycline],fold-increase (GFP output),[1],1.9 fold
"ATTGTGCCTGAGGGTAGT (all phosphorothioate, sugars by position and methylation of C not given here; some nucleotides are LNA)",shift of GFP fluorescence upon application of the LNA,[2],fluorescence is shifted

# Reference: patent US20240425855A1, “NUCLEIC ACID-[…] RNAS FOR TRIGGER-[…]” (Hoffmann-La Roche Inc., priority 2021, published 2024)
